Experimental data taken from article PMC3105219 (Neuropharmacology, 2011).

What was measured:
mNET Y151I = mNET Y151I (Mus musculus, UniProt O55192, Y151I); assay: Uptake inhibition, mNET Y151I mutant; type: cell-based; conditions: read-out: RTI-113 IC50 [nM] uptake inhibition, mean ± SEM
mNET Y151M = mNET Y151M (Mus musculus, UniProt O55192, Y151M); assay: Uptake inhibition, mNET Y151M mutant; type: cell-based; conditions: read-out: RTI-113 IC50 [nM] uptake inhibition, mean ± SEM
[1] = biological target: mNET-TM8m (A415T/L418I/S421A/A427S/A433V/D435E) (Mus musculus, UniProt O55192, A414T/A426S/A432V/D434E/L417I/S420A); assay: Uptake inhibition, mNET-TM8m mutant; type: cell-based; conditions: read-out: RTI-113 IC50 [nM] uptake inhibition, mean ± SEM
Sequence of mNET-TM8m (A415T/L418I/S421A/A427S/A433V/D435E) (O55192 whole entry A414T/L417I/S420A/A426S/A432V/D434E): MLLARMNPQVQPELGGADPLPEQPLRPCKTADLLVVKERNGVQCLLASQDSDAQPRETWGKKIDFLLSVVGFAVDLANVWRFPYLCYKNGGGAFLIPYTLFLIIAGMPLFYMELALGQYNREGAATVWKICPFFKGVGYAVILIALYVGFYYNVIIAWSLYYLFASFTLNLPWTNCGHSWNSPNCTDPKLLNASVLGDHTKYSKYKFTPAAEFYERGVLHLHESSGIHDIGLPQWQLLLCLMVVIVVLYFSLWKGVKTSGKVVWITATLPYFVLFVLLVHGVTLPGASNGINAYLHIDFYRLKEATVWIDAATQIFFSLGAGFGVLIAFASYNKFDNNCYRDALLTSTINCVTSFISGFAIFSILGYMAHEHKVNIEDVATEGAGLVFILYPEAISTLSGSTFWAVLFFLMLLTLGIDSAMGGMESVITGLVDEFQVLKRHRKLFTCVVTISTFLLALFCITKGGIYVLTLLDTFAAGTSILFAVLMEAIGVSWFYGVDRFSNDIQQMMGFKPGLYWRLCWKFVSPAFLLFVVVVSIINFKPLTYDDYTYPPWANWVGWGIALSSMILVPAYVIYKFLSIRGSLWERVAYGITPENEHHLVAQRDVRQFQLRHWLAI

mDAT F155Y = mDAT F155Y (Mus musculus, UniProt Q61327, F155Y); assay: Uptake inhibition, mDAT F155Y mutant; type: cell-based; conditions: for IC50: read-out: IC50 uptake inhibition, mDAT F155Y, mean ± SEM
Sequence of mDAT F155Y (Q61327 whole entry F155Y): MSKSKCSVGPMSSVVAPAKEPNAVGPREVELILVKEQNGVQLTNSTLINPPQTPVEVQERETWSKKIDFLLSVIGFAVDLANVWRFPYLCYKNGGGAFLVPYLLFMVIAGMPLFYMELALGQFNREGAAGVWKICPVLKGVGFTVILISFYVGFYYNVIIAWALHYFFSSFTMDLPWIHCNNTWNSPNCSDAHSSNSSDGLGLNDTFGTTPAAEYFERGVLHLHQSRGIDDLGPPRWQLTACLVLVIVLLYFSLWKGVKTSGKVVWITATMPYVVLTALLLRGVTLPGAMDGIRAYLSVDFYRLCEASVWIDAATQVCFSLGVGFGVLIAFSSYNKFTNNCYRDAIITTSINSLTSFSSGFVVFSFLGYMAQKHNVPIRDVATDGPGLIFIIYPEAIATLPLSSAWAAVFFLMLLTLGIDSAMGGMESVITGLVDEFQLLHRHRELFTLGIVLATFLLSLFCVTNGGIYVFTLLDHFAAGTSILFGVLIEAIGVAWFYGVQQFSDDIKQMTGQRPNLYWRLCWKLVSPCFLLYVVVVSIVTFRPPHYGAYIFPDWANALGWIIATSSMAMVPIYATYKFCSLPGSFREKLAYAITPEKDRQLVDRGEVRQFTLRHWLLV

[2] = biological target: mNET-TM6m (T306S/I315V/F316C/A321) (Mus musculus, UniProt O55192, A321V/F316C/I315V/T306S); assay: Uptake inhibition, mNET-TM6m mutant; type: cell-based; conditions: read-out: RTI-113 IC50 [nM] uptake inhibition, mean ± SEM
Sequence of mNET-TM6m (T306S/I315V/F316C/A321) (O55192 whole entry T306S/I315V/F316C/A321V): as the sequence (O55192 whole entry A414T/L417I/S420A/A426S/A432V/D434E) above, with T306S, I315V, F316C, A321V, T414A, I417L, A420S, S426A, V432A, E434D counted along it

mNET Y151T = mNET Y151T (Mus musculus, UniProt O55192, Y151T); assay: Uptake inhibition, mNET Y151T mutant; type: cell-based; conditions: read-out: RTI-113 IC50 [nM] uptake inhibition, mean ± SEM
Sequence of mNET Y151T (O55192 whole entry Y151T): as the sequence (O55192 whole entry A414T/L417I/S420A/A426S/A432V/D434E) above, with Y151T, T414A, I417L, A420S, S426A, V432A, E434D counted along it

[3] = biological target: mNET-TM3m (Y151F/S159A/Y161H) (Mus musculus, UniProt O55192, S159A/Y151F/Y161H); assay: Uptake inhibition, mNET-TM3m mutant; type: cell-based; conditions: read-out: RTI-113 IC50 [nM] uptake inhibition, mean ± SEM
Sequence of mNET-TM3m (Y151F/S159A/Y161H) (O55192 whole entry Y151F/S159A/Y161H): as the sequence (O55192 whole entry A414T/L417I/S420A/A426S/A432V/D434E) above, with Y151F, S159A, Y161H, T414A, I417L, A420S, S426A, V432A, E434D counted along it

mNET Y151E = mNET Y151E (Mus musculus, UniProt O55192, Y151E); assay: Uptake inhibition, mNET Y151E mutant; type: cell-based; conditions: read-out: RTI-113 IC50 [nM] uptake inhibition, mean ± SEM
Sequence of mNET Y151E (O55192 whole entry Y151E): as the sequence (O55192 whole entry A414T/L417I/S420A/A426S/A432V/D434E) above, with Y151E, T414A, I417L, A420S, S426A, V432A, E434D counted along it

mNET Y151V = mNET Y151V (Mus musculus, UniProt O55192, Y151V); assay: Uptake inhibition, mNET Y151V mutant; type: cell-based; conditions: read-out: RTI-113 IC50 [nM] uptake inhibition, mean ± SEM
Sequence of mNET Y151V (O55192 whole entry Y151V): as the sequence (O55192 whole entry A414T/L417I/S420A/A426S/A432V/D434E) above, with Y151V, T414A, I417L, A420S, S426A, V432A, E434D counted along it

mNET Y151K = mNET Y151K (Mus musculus, UniProt O55192, Y151K); assay: Uptake inhibition, mNET Y151K mutant; type: cell-based; conditions: read-out: RTI-113 IC50 [nM] uptake inhibition, mean ± SEM
Sequence of mNET Y151K (O55192 whole entry Y151K): as the sequence (O55192 whole entry A414T/L417I/S420A/A426S/A432V/D434E) above, with Y151K, T414A, I417L, A420S, S426A, V432A, E434D counted along it

mNET Y151Q = mNET Y151Q (Mus musculus, UniProt O55192, Y151Q); assay: Uptake inhibition, mNET Y151Q mutant; type: cell-based; conditions: read-out: RTI-113 IC50 [nM] uptake inhibition, mean ± SEM
Sequence of mNET Y151Q (O55192 whole entry Y151Q): as the sequence (O55192 whole entry A414T/L417I/S420A/A426S/A432V/D434E) above, with Y151Q, T414A, I417L, A420S, S426A, V432A, E434D counted along it

mNET Y151C = mNET Y151C (Mus musculus, UniProt O55192, Y151C); assay: Uptake inhibition, mNET Y151C mutant; type: cell-based; conditions: read-out: RTI-113 IC50 [nM] uptake inhibition, mean ± SEM
Sequence of mNET Y151C (O55192 whole entry Y151C): as the sequence (O55192 whole entry A414T/L417I/S420A/A426S/A432V/D434E) above, with Y151C, T414A, I417L, A420S, S426A, V432A, E434D counted along it

mNET Y151G = mNET Y151G (Mus musculus, UniProt O55192, Y151G); assay: Uptake inhibition, mNET Y151G mutant; type: cell-based; conditions: read-out: RTI-113 IC50 [nM] uptake inhibition, mean ± SEM
Sequence of mNET Y151G (O55192 whole entry Y151G): as the sequence (O55192 whole entry A414T/L417I/S420A/A426S/A432V/D434E) above, with Y151G, T414A, I417L, A420S, S426A, V432A, E434D counted along it

NET = conditions: ref Carroll et al., 1995, cited from earlier work
mNET Y151D = mNET Y151D (Mus musculus, UniProt O55192, Y151D); assay: Uptake inhibition, mNET Y151D mutant; type: cell-based; conditions: read-out: RTI-113 IC50 [nM] uptake inhibition, mean ± SEM
Sequence of mNET Y151D (O55192 whole entry Y151D): as the sequence (O55192 whole entry A414T/L417I/S420A/A426S/A432V/D434E) above, with Y151D, T414A, I417L, A420S, S426A, V432A, E434D counted along it

mNET Y151L = mNET Y151L (Mus musculus, UniProt O55192, Y151L); assay: Uptake inhibition, mNET Y151L mutant; type: cell-based; conditions: read-out: RTI-113 IC50 [nM] uptake inhibition, mean ± SEM
Sequence of mNET Y151L (O55192 whole entry Y151L): as the sequence (O55192 whole entry A414T/L417I/S420A/A426S/A432V/D434E) above, with Y151L, T414A, I417L, A420S, S426A, V432A, E434D counted along it

mNET Y151W = mNET Y151W (Mus musculus, UniProt O55192, Y151W); assay: Uptake inhibition, mNET Y151W mutant; type: cell-based; conditions: read-out: RTI-113 IC50 [nM] uptake inhibition, mean ± SEM
Sequence of mNET Y151W (O55192 whole entry Y151W): as the sequence (O55192 whole entry A414T/L417I/S420A/A426S/A432V/D434E) above, with Y151W, T414A, I417L, A420S, S426A, V432A, E434D counted along it

DAT = conditions: ref Carroll et al., 1995, cited from earlier work
mNET Y151F = mNET Y151F (Mus musculus, UniProt O55192, Y151F); assay: Uptake inhibition, mNET Y151F mutant; type: cell-based; conditions: for IC50: read-out: IC50 uptake inhibition, mNET Y151F, mean ± SEM
Sequence of mNET Y151F (O55192 whole entry Y151F): as the sequence (O55192 whole entry A414T/L417I/S420A/A426S/A432V/D434E) above, with Y151F, T414A, I417L, A420S, S426A, V432A, E434D counted along it

mNET Y151A = mNET Y151A (Mus musculus, UniProt O55192, Y151A); assay: Uptake inhibition, mNET Y151A mutant; type: cell-based; conditions: read-out: RTI-113 IC50 [nM] uptake inhibition, mean ± SEM
Sequence of mNET Y151A (O55192 whole entry Y151A): as the sequence (O55192 whole entry A414T/L417I/S420A/A426S/A432V/D434E) above, with Y151A, T414A, I417L, A420S, S426A, V432A, E434D counted along it

mNET Y151S = mNET Y151S (Mus musculus, UniProt O55192, Y151S); assay: Uptake inhibition, mNET Y151S mutant; type: cell-based; conditions: read-out: RTI-113 IC50 [nM] uptake inhibition, mean ± SEM
Sequence of mNET Y151S (O55192 whole entry Y151S): as the sequence (O55192 whole entry A414T/L417I/S420A/A426S/A432V/D434E) above, with Y151S, T414A, I417L, A420S, S426A, V432A, E434D counted along it

mNET Y151N = mNET Y151N (Mus musculus, UniProt O55192, Y151N); assay: Uptake inhibition, mNET Y151N mutant; type: cell-based; conditions: read-out: RTI-113 IC50 [nM] uptake inhibition, mean ± SEM
Sequence of mNET Y151N (O55192 whole entry Y151N): as the sequence (O55192 whole entry A414T/L417I/S420A/A426S/A432V/D434E) above, with Y151N, T414A, I417L, A420S, S426A, V432A, E434D counted along it

mNET = mNET (Mus musculus, UniProt O55192); type: cell-based
Sequence of mNET (O55192 whole entry): as the sequence (O55192 whole entry A414T/L417I/S420A/A426S/A432V/D434E) above, with T414A, I417L, A420S, S426A, V432A, E434D counted along it

mDAT = mDAT (Mus musculus, UniProt Q61327); assay: Inhibition of [3H]dopamine uptake, wild type mDAT in transfected HeLa cells; type: cell-based
Sequence of mDAT (Q61327 whole entry): as the sequence (Q61327 whole entry F155Y) above, with Y155F counted along it

Sequence of mNET Y151I (O55192 whole entry Y151I): as the sequence (O55192 whole entry A414T/L417I/S420A/A426S/A432V/D434E) above, with Y151I, T414A, I417L, A420S, S426A, V432A, E434D counted along it
Sequence of mNET Y151M (O55192 whole entry Y151M): as the sequence (O55192 whole entry A414T/L417I/S420A/A426S/A432V/D434E) above, with Y151M, T414A, I417L, A420S, S426A, V432A, E434D counted along it

SMILES: CN1[C@H]2CC[C@@H]1[C@@H](C(=O)Oc1ccccc1)[C@@H](c1ccc(Cl)cc1)C2 [RTI-113]
- IC50 (mNET Y151I): 199 ± 65.1 nM
- IC50 (mNET Y151M): 679 ± 174 nM
- IC50 [1]: 269 ± 35.8 nM
- decrease in potency (mDAT F155Y; mDAT-F155Y versus wild type mDAT): 20 fold
- IC50 (mDAT F155Y): 13.4 ± 1.9 nM
- IC50 [2]: 341 ± 77.2 nM
- IC50 (mNET Y151T): 115 ± 33.2 nM
- IC50 [3]: 1.89 ± 1.29 nM
- IC50 (mNET Y151E): 770 ± 55.3 nM
- IC50 (mNET Y151V): 181 ± 81.1 nM
- IC50 (mNET Y151K): 453 ± 71 nM
- IC50 (mNET Y151Q): 831 ± 69 nM
- IC50 (mNET Y151C): 211 ± 23 nM
- IC50 (mNET Y151G): 165 ± 28.4 nM
- loss of potency to NET compared with RTI-31 (NET; times less potent than RTI-31): about 100 times
- IC50 (mNET Y151D): 306 ± 105 nM
- IC50 (mNET Y151L): 342 ± 110 nM
- IC50 (mNET Y151W): 256 ± 66.9 nM
- potency at inhibiting DAT relative to inhibiting NET (DAT; DAT over NET selectivity, stated in abstract): 100 x
- increase in potency for inhibition of substrate uptake (mNET Y151F; mNET-Y151F versus wild type mNET): 14 fold
- IC50 (mNET Y151F): 12.1 ± 0.8 nM
- IC50 (mNET Y151A): 130 ± 15.1 nM
- IC50 (mNET Y151S): 99.3 ± 43.8 nM
- IC50 (mNET Y151N): 291 ± 51.5 nM

SMILES: COC(=O)[C@H]1[C@@H](OC(=O)c2ccccc2)C[C@@H]2CC[C@H]1N2C [cocaine]
- IC50 (mNET): 398 ± 66.8 nM
- IC50 (mDAT): 318 ± 126 nM

SMILES: COC(=O)[C@H]1[C@@H](c2ccc(Cl)cc2)C[C@H]2CC[C@H]1N2C [RTI-31]
- IC50 (mDAT F155Y): 1.65 ± 1.19 nM
- potency in inhibiting NET compared with cocaine (NET; times more potent than cocaine): 100 x
- potency in inhibiting DAT compared with cocaine (DAT; times more potent than cocaine): 100 x
- IC50 (mNET Y151F): 1.44 ± 0.67 nM
